In ChEMBL document CHEMBL4002626, “Identification of a selective inhibitor of transforming growth factor β-activated kinase 1 by biosensor-based screening of focused libraries” (Bioorg Med Chem Lett, 2017):
Each block holds one compound with its values, some of them ahead of it. Calls of active or inactive are those of the source. No cut-off for these calls is given here.

Experiments:
[1] = target: T1, Mitogen-activated protein kinase kinase kinase 7 (Homo sapiens, UniProt O43318); test: Binding affinity to recombinant human biotinylated N-terminal GST-tagged autophosphorylated TAK1 (1 to 303 residues) fused with TAB1 (437 to 504 residues) expressed in baculovirus infected sf9 cells by SPR assay
T1 sequence (O43318 whole entry): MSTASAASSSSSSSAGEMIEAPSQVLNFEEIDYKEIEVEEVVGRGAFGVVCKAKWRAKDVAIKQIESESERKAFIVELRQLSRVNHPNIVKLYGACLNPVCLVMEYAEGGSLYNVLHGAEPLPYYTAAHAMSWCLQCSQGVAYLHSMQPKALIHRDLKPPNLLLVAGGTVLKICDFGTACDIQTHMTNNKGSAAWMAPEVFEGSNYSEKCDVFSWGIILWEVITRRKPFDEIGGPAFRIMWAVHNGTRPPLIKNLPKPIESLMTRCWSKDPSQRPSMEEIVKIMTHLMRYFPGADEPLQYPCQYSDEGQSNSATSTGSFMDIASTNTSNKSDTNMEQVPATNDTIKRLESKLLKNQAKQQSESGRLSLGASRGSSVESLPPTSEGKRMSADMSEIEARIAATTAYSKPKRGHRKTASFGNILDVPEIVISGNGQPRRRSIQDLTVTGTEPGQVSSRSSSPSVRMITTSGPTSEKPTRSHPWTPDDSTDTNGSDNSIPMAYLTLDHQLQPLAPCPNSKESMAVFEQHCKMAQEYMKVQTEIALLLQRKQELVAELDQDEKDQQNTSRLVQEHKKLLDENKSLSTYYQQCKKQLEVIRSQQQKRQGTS

[2] = target: T1, Mitogen-activated protein kinase kinase kinase 7; test: Binding affinity to recombinant human biotinylated N-terminal GST-tagged non-autophosphorylated TAK1 (1 to 303 residues) fused with TAB1 (437 to 504 residues) expressed in baculovirus infected sf9 cells by SPR assay
[3] = target: T2, Mitogen-activated protein kinase kinase kinase 7 (Homo sapiens) (UniProt O43318); test: Binding affinity to TAK1 (unknown origin) at 5 uM using spin-labeled probe by 1H NMR method
T2 sequence (whole entry): T1 sequence (O43318 whole entry)

[4] = target: T2, Mitogen-activated protein kinase kinase kinase 7 (Homo sapiens); test: Binding affinity to recombinant human biotinylated N-terminal GST-tagged TAK1 (1 to 303 residues) fused with TAB1 (437 to 504 residues) expressed in baculovirus infected sf9 cells at 250 uM in presence of adenosine by SPR assay
[5] = Solubility of the compound in 50 mM phosphate buffer at pH 6.5 after 24 hrs by HPLC-UV spectrophotometric assay; format: physicochemical
[6] = target: BMP-2-inducible protein kinase (Homo sapiens) (UniProt Q9NSY1); test: Inhibition of human BIKE (S34 to N329 residues) expressed in bacterial expression system at 1 uM by KINOMEscan assay
[7] = Solubility of the compound in fasted state simulated intestinal fluid at pH 6.5 after 24 hrs by HPLC-UV spectrophotometric assay; format: physicochemical
[8] = target: T2, Mitogen-activated protein kinase kinase kinase 7 (Homo sapiens); test: Binding affinity to recombinant human biotinylated N-terminal GST-tagged TAK1 (1 to 303 residues) fused with TAB1 (437 to 504 residues) expressed in baculovirus infected sf9 cells at 1 uM in presence of ATP by SPR assay
[9] = target: Epidermal growth factor receptor (Homo sapiens, UniProt P00533); test: Inhibition of recombinant human N-terminal GST-tagged EGFR cytoplasmic domain (669 to 1210 residues) expressed in baculovirus expression system
[10] = target: Mast/stem cell growth factor receptor Kit (Homo sapiens, UniProt P10721); test: Inhibition of recombinant human N-terminal GST-tagged KIT cytoplasmic domain (544 to 976 residues) expressed in baculovirus expression system
[11] = Inhibition of PDGFR (unknown origin); parameters: species or system Homo sapiens
[12] = target: Receptor-type tyrosine-protein kinase FLT3 (Homo sapiens, UniProt P36888); test: Inhibition of recombinant human N-terminal GST-tagged FLT3 cytoplasmic domain (564 to 993 residues) expressed in baculovirus expression system
[13] = target: Fibroblast growth factor receptor 2 (Homo sapiens, UniProt P21802); test: Inhibition of recombinant human N-terminal GST-tagged FGFR2 cytoplasmic domain (399 to 821 residues) expressed in baculovirus expression system
[14] = target: Vascular endothelial growth factor receptor 2 (Homo sapiens, UniProt P35968); test: Inhibition of recombinant human N-terminal GST-tagged KDR cytoplasmic domain (790 to 1356 residues) expressed in baculovirus expression system
[15] = target: Tyrosine-protein kinase receptor UFO (Homo sapiens, UniProt P30530); test: Inhibition of recombinant human N-terminal GST-tagged AXL cytoplasmic domain (464 to 885 residues) expressed in baculovirus expression system
[16] = target: Macrophage-stimulating protein receptor (Homo sapiens, UniProt Q04912); test: Inhibition of recombinant human N-terminal GST-tagged RON cytoplasmic domain (979 to 1400 residues) expressed in baculovirus expression system
[17] = target: Hepatocyte growth factor receptor (Homo sapiens, UniProt P08581); test: Inhibition of recombinant human N-terminal GST-tagged MET cytoplasmic domain (956 to 1390 residues) expressed in baculovirus expression system
[18] = target: Epithelial discoidin domain-containing receptor 1 (Homo sapiens, UniProt Q08345); test: Inhibition of recombinant human N-terminal GST-tagged DDR1 cytoplasmic domain (444 to 876 residues) expressed in baculovirus expression system
[19] = target: Insulin-like growth factor 1 receptor (Homo sapiens, UniProt P08069); test: Inhibition of recombinant human N-terminal GST-tagged IGF1R cytoplasmic domain (959 to 1367 residues) expressed in baculovirus expression system
Insulin receptor = Insulin receptor (Homo sapiens, UniProt P06213); test: Inhibition of recombinant human N-terminal GST-tagged INSR cytoplasmic domain (1005 to 1310 residues) expressed in baculovirus expression system
[20] = target: Leukocyte tyrosine kinase receptor (Homo sapiens, UniProt P29376); test: Inhibition of recombinant human N-terminal GST-tagged LTK cytoplasmic domain (498 to 796 residues) expressed in baculovirus expression system
Ephrin type-A receptor 2 = Ephrin type-A receptor 2 (Homo sapiens, UniProt P29317); test: Inhibition of recombinant human N-terminal GST-tagged EPHA2 cytoplasmic domain (572 to 976 residues) expressed in baculovirus expression system
Focal adhesion kinase 1 = Focal adhesion kinase 1 (Homo sapiens, UniProt Q05397); test: Inhibition of recombinant human N-terminal GST-tagged FAK cytoplasmic domain (376 to 1052 residues) expressed in baculovirus expression system
[21] = target: Tyrosine-protein kinase Yes (Homo sapiens, UniProt P07947); test: Inhibition of recombinant full length human N-terminal GST-tagged YES (1 to 543 residues) expressed in baculovirus expression system
[22] = target: Proto-oncogene tyrosine-protein kinase Src (Homo sapiens, UniProt P12931); test: Inhibition of recombinant full length human N-terminal GST-tagged SRC (1 to 536 residues) expressed in baculovirus expression system
[23] = target: Tyrosine-protein kinase Fyn (Homo sapiens, UniProt P06241); test: Inhibition of FYN (unknown origin)
[24] = target: Tyrosine-protein kinase Lyn (Homo sapiens, UniProt P07948); test: Inhibition of LYN (unknown origin)
[25] = target: Tyrosine-protein kinase Lck (Homo sapiens, UniProt P06239); test: Inhibition of recombinant full length human N-terminal GST-tagged LCK (1 to 509 residues) expressed in baculovirus expression system
[26] = target: Protein-tyrosine kinase 6 (Homo sapiens, UniProt Q13882); test: Inhibition of recombinant full length human N-terminal GST-tagged BRK (2 to 451 residues) expressed in baculovirus expression system
[27] = target: Tyrosine-protein kinase ABL1 (Homo sapiens, UniProt P00519); test: Inhibition of recombinant full length human N-terminal GST-tagged ABL (2 to 1130 residues) expressed in baculovirus expression system
[28] = target: RAF proto-oncogene serine/threonine-protein kinase (Homo sapiens, UniProt P04049); test: Inhibition of recombinant human N-terminal GST-tagged RAF1 catalytic domain (306 to 648 residues) expressed in baculovirus expression system
[29] = target: Dual specificity mitogen-activated protein kinase kinase 1 (Homo sapiens, UniProt Q02750); test: Inhibition of MEK1 (unknown origin)
[30] = Inhibition of PKA (unknown origin); parameters: species or system Homo sapiens
[31] = target: RAC-alpha serine/threonine-protein kinase (Homo sapiens, UniProt P31749); test: Inhibition of recombinant human N-terminal GST-tagged AKT1 catalytic domain (104 to 480 residues) expressed in baculovirus expression system
[32] = target: Cyclin-dependent kinase 1 (Homo sapiens, UniProt P06493); test: Inhibition of CDK1 (unknown origin)
[33] = target: Cyclin-dependent kinase 2 (Homo sapiens, UniProt P24941); test: Inhibition of CDK2 (unknown origin)
[34] = target: Protein kinase C zeta type (Homo sapiens, UniProt Q05513); test: Inhibition of recombinant full length human N-terminal GST-tagged PKCzeta (1 to 592 residues) expressed in baculovirus expression system
[35] = target: Protein kinase C alpha type (Homo sapiens, UniProt P17252); test: Inhibition of recombinant full length human N-terminal GST-tagged PKCalpha (1 to 351 residues) expressed in baculovirus expression system
[36] = target: T3, Protein kinase C beta type (Homo sapiens, UniProt P05771); test: Inhibition of recombinant full length human N-terminal GST-tagged PKCbeta1 (1 to 671 residues) expressed in baculovirus expression system
[37] = target: T3, Protein kinase C beta type; test: Inhibition of recombinant full length human N-terminal GST-tagged PKCbeta2 (1 to 673 residues) expressed in baculovirus expression system
Aurora kinase A = Aurora kinase A (Homo sapiens, UniProt O14965); test: Inhibition of recombinant full length human N-terminal GST-tagged Aurora kinase-A (1 to 403 residues) expressed in baculovirus expression system
[38] = target: Mitogen-activated protein kinase 14 (Homo sapiens, UniProt Q16539); test: Inhibition of recombinant human N-terminal GST-tagged p38-alpha (9 to 352 residues) expressed in Escherichia coli expression system
Mitogen-activated protein kinase 14, sequence (Q16539 whole entry, the tested form may be a part): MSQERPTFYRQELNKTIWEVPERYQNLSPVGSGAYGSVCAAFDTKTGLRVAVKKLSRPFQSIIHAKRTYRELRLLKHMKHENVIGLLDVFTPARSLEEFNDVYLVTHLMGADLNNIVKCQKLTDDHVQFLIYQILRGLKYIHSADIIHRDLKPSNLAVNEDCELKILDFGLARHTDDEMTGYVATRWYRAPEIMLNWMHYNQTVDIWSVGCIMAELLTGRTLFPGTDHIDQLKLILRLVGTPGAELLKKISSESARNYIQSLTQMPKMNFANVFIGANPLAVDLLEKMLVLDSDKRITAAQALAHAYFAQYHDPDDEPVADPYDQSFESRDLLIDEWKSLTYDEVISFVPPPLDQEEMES

T3 sequence (P05771 whole entry, the tested form may be a part): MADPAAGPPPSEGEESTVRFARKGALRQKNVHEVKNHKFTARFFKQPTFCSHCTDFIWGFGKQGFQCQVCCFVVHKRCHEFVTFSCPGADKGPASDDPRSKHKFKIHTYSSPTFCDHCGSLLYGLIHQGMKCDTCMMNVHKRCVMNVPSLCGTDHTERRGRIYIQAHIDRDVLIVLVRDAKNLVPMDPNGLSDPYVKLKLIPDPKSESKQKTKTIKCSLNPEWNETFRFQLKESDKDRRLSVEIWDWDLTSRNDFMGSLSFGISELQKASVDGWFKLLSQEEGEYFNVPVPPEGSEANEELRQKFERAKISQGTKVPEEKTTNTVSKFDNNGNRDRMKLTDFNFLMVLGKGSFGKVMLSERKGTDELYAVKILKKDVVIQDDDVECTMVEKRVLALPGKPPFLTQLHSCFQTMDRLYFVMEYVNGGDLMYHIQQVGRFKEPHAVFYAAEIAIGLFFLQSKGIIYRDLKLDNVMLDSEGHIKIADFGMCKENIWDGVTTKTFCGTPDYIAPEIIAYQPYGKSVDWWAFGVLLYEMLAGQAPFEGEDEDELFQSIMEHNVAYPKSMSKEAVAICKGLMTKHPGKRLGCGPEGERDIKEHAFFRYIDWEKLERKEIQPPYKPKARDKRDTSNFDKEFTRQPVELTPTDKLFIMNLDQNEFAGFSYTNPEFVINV
Aurora kinase A, sequence (O14965 whole entry, the tested form may be a part): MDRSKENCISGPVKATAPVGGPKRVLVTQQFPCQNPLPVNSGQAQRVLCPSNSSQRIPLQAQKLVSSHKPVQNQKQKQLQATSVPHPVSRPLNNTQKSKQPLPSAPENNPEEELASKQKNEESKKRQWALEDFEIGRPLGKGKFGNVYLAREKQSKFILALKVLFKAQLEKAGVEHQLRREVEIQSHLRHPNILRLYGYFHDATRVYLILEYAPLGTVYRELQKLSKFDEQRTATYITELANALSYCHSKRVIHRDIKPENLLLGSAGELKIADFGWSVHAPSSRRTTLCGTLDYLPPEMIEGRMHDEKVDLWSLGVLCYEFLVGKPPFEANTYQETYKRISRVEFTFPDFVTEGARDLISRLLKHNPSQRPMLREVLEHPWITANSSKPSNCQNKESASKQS
Mast/stem cell growth factor receptor Kit, sequence (P10721 whole entry, the tested form may be a part): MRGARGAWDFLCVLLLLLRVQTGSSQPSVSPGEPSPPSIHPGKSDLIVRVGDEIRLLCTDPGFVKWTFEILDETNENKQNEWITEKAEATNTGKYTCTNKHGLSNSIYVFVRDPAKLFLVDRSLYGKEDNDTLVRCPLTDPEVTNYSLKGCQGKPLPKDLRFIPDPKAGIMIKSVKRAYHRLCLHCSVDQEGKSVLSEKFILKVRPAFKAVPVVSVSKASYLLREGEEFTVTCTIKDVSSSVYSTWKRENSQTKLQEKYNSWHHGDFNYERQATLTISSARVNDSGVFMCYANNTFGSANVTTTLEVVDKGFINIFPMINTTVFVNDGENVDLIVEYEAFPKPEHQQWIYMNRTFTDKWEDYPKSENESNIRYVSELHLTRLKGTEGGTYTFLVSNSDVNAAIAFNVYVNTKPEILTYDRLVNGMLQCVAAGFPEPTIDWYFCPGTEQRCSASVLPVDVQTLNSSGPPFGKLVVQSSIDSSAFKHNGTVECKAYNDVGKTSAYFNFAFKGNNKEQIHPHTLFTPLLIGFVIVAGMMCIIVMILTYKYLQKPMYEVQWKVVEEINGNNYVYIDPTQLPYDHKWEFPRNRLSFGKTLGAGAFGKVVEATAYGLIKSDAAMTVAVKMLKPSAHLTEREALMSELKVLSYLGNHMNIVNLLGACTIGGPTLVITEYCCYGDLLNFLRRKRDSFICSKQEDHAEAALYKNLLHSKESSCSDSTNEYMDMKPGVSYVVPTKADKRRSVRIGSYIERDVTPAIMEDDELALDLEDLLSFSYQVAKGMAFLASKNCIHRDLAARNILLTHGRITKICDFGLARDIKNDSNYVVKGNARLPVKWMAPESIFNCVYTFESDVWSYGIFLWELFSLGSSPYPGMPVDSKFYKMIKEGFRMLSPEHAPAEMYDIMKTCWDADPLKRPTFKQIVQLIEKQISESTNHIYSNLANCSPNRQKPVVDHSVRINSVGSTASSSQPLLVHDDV
Tyrosine-protein kinase receptor UFO, sequence (P30530 whole entry, the tested form may be a part): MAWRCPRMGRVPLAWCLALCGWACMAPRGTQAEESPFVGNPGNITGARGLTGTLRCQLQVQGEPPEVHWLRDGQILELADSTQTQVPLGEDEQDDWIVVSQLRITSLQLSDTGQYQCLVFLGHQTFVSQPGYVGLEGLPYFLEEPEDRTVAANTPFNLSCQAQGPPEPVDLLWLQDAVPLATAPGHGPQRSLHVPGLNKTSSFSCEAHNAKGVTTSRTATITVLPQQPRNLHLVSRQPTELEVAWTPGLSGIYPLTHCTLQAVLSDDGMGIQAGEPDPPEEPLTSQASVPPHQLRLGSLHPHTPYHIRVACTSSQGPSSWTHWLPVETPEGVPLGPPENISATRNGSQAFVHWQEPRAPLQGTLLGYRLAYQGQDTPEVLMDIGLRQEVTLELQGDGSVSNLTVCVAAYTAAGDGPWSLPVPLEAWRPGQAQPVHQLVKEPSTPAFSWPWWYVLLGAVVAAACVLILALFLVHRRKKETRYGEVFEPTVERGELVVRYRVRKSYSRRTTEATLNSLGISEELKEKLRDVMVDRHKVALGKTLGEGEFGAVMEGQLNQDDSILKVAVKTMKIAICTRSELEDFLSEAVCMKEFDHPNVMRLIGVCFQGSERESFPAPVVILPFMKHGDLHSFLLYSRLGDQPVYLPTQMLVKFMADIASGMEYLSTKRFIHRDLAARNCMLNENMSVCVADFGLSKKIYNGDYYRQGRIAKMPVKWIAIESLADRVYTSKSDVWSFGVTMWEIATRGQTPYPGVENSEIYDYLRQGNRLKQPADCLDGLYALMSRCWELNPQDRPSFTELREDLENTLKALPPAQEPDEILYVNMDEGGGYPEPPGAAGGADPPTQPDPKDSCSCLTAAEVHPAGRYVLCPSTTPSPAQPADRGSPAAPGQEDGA
Tyrosine-protein kinase ABL1, sequence (P00519 whole entry, the tested form may be a part): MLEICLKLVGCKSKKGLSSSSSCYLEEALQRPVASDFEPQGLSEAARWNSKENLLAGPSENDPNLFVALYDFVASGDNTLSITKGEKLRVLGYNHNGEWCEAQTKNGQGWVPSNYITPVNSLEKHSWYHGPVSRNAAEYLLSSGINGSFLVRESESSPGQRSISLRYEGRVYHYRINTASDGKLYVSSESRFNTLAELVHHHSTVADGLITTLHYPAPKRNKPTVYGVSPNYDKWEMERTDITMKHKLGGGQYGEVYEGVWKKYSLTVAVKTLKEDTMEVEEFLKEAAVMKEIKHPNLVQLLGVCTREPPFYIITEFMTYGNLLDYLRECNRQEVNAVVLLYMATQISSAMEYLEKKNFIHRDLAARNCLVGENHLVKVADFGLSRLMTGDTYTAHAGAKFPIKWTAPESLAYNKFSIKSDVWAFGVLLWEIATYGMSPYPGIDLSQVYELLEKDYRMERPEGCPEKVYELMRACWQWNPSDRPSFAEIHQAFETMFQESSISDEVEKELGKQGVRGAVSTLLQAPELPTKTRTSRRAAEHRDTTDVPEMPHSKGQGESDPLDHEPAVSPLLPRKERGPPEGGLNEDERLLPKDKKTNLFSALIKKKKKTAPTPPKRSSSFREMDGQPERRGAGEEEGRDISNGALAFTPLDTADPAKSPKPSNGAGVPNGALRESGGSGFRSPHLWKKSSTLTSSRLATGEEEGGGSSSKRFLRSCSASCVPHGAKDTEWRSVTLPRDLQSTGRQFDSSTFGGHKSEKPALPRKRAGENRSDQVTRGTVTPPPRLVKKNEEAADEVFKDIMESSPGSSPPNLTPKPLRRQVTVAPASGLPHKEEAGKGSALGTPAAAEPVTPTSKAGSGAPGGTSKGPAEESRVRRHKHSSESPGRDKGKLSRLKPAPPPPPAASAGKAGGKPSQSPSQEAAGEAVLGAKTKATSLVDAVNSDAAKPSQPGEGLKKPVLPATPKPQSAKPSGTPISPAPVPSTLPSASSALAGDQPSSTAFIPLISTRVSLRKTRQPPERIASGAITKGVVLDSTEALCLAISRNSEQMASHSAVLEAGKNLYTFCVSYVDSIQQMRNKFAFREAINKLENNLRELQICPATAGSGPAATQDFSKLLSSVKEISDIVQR
Protein-tyrosine kinase 6, sequence (Q13882 whole entry, the tested form may be a part): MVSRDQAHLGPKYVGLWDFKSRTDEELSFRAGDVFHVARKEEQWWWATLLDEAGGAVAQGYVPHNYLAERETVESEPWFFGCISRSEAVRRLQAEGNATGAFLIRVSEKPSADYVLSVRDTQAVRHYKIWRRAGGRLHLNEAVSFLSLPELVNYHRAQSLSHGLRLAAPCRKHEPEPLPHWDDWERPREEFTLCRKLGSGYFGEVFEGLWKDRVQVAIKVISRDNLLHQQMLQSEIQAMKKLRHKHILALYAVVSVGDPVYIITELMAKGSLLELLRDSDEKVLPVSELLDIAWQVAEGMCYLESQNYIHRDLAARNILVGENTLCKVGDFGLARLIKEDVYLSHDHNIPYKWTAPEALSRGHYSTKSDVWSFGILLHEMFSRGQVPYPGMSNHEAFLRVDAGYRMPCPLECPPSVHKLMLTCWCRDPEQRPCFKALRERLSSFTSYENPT

Kd [1]: 4.4 µM
Kd [2]: 34 µM
Structure (SMILES): Nc1ncnc2c1ncn2[C@@H]1O[C@H](CO)[C@@H](O)[C@H]1O [ADENOSINE]

Activity [3]: Active
Activity [4]: Active
Structure (SMILES): Oc1cnnc(SCc2ccc(Br)cc2)n1

Kd [1]: 0.059 µM
Kd [2]: 0.15 µM
solubility at 24 h [5]: < 3 µg/mL
inhibition [6]: Active
solubility at 24 h [7]: < 3 µg/mL
Activity [8]: Active
IC50 [9]: > 50 µM
IC50 [10]: > 50 µM
IC50 [11]: > 50 µM
IC50 [12]: 0.056 µM
IC50 [13]: > 50 µM
IC50 [14]: > 50 µM
IC50 [15]: > 50 µM
IC50 [16]: > 50 µM
IC50 [17]: > 50 µM
IC50 [18]: > 50 µM
IC50 [19]: > 50 µM
IC50 (Insulin receptor): > 50 µM
IC50 [20]: > 50 µM
IC50 (Ephrin type-A receptor 2): > 50 µM
IC50 (Focal adhesion kinase 1): > 50 µM
IC50 [21]: > 50 µM
IC50 [22]: > 50 µM
IC50 [23]: > 50 µM
IC50 [24]: > 50 µM
IC50 [25]: > 50 µM
IC50 [26]: > 50 µM
IC50 [27]: > 50 µM
IC50 [28]: > 50 µM
IC50 [29]: > 50 µM
IC50 [30]: > 50 µM
IC50 [31]: > 50 µM
IC50 [32]: > 50 µM
IC50 [33]: > 50 µM
IC50 [34]: > 50 µM
IC50 [35]: > 50 µM
IC50 [36]: > 50 µM
IC50 [37]: > 50 µM
IC50 (Aurora kinase A): 42 µM
IC50 [38]: > 50 µM
Structure (SMILES): COc1cc2ncccc2cc1NC(=O)c1csc2cncnc12

More lines, now with the values behind:

Structure (SMILES): Nc1ncnc2c1ncn2[C@@H]1O[C@H](COP(=O)(O)OP(=O)(O)OP(=O)(O)O)[C@@H](O)[C@H]1O [ADENOSINE TRIPHOSPHATE]
Kd [1]: 2.8 µM

Structure (SMILES): Nc1ncnc2c1ncn2[C@@H]1O[C@H](COP(=O)(O)O)[C@@H](O)[C@H]1O [ADENOSINE PHOSPHATE]
Kd [1]: 120 µM
Kd [2]: 370 µM

Structure (SMILES): Nc1ncnc2c1ncn2[C@@H]1O[C@H](COP(=O)(O)OP(=O)(O)O)[C@@H](O)[C@H]1O [ADENOSINE DIPHOSPHATE]
Kd [1]: 4.1 µM
Kd [2]: 63 µM

Structure (SMILES): CN1CCN(c2cccc3cc(NC(=O)Nc4ccc(Oc5ccnc6[nH]ccc56)cc4)ccc23)CC1
Kd [1]: 0.012 µM
